Test results as given in patent publication US4398029A, “Quinoline carboxylic acid derivatives and process for the preparation” (Kyorin Seiyaku Kabushiki Kaisha, priority 1981, dated 1983).
Values after ≈ are worked out from the molar mass of the structure shown. Like-named read-outs stand apart in the source and are kept apart here.

Key:
[1] = test system: Acinetobacter anitratus IID 876; experiment: Antibacterial activity (MIC), standard agar dilution streak method; assay type: cell-based; conditions: Acinetobacter calcoaceticus, IID876, read-out: Minimum inhibitory concentration
Description: (§1) The antibacterial activities of the compounds of the present invention were assayed by the standard agar dilution streak method against Gram-positive and Gram-negative bacteria [Chemotherapy, 22, 1126 (1974)].

[2] = test system: Alcaligenes faecalis 0104002; experiment: as above; assay type: cell-based; conditions: for MIC: read-out: Minimum inhibitory concentration
Description: as §1

[3] = test system: Bacillus subtilis PCI 219; experiment: as above; assay type: cell-based; conditions: PCI219; Bacillus subtilis PCI 219; read-out: Minimum inhibitory concentration
Description: as §1

[4] = test system: Citrobacter freundii IID 976; experiment: as above; assay type: cell-based; conditions: read-out: Minimum inhibitory concentration
Description: as §1

[5] = test system: Escherichia coli NIHJ JC-2; experiment: as above; assay type: cell-based; conditions: for MIC: read-out: Minimum inhibitory concentration
Description: as §1

[6] = test system: Klebsiella pneumoniae IFO 3512; experiment: as above; assay type: cell-based; conditions: read-out: Minimum inhibitory concentration
Description: as §1

P. morganii IID 602 = experiment: as above; assay type: cell-based; conditions: Morganella morganii, IID602, P. morganii IID 602; read-out: Minimum inhibitory concentration
Description: as §1

Proteus vulgaris 3167 = experiment: as above; assay type: cell-based; conditions: read-out: Minimum inhibitory concentration
Description: as §1

[7] = test system: Pseudomonas aeruginosa V-1; experiment: as above; assay type: cell-based; conditions: read-out: Minimum inhibitory concentration
Description: as §1

S. epidermidis IID 866 = experiment: as above; assay type: cell-based; conditions: Staphylococcus epidermidis, IID866, read-out: Minimum inhibitory concentration
Description: as §1

[8] = test system: Salmonella enteritidis IID 604; experiment: as above; assay type: cell-based; conditions: Salmonella enterica; Salmonella enteritidis IID 604; read-out: Minimum inhibitory concentration
Description: as §1

[9] = test system: Serratia marcescens IID 618; experiment: as above; assay type: cell-based; conditions: for MIC: read-out: Minimum inhibitory concentration
Description: as §1

[10] = test system: Staphylococcus aureus 209 p; experiment: as above; assay type: cell-based; conditions: Staphylococcus aureus 209 p; for MIC: read-out: Minimum inhibitory concentration
Description: as §1

[11] = test system: Yersinia enterocolitica IID 981; experiment: as above; assay type: cell-based; conditions: read-out: Minimum inhibitory concentration
Description: as §1

S. aureus Terajima = experiment: as above; assay type: cell-based, Staphylococcus aureus; conditions: Staphylococcus aureus; S. aureus Terajima; read-out: Minimum inhibitory concentration
Description: as §1

E. coli ATCC 10536 = experiment: as above; assay type: cell-based, Escherichia coli; conditions: for MIC: Escherichia coli, ATCC10536, read-out: Minimum inhibitory concentration
Description: as §1

Shigella sonnei IID 969 = experiment: microbe, parasite or virus in culture; assay type: cell-based; conditions: Shigella sonnei
Description: as §1

P. aeruginosa IFO 12689 = experiment: Antibacterial activity (MIC), standard agar dilution streak method; assay type: cell-based, Pseudomonas aeruginosa; conditions: Pseudomonas aeruginosa, IFO12689, P. aeruginosa IFO 12689; read-out: Minimum inhibitory concentration
Description: as §1

[12] = test system: Enterobacter cloacae IID 977; experiment: as above; assay type: cell-based; conditions: read-out: Minimum inhibitory concentration
Description: as §1

P. mirabilis IID 994 = experiment: as above; assay type: cell-based; conditions: Proteus mirabilis, IID994; P. mirabilis IID 994; read-out: Minimum inhibitory concentration
Description: as §1

[13] = Citrobacter freundii, IID976, Citrobacter freundii IID 976
[14] = Klebsiella pneumoniae, IFO3512, Klebsiella pneumoniae IFO 3512
[15] = Proteus vulgaris, 3167, Proteus vulgaris 3167
[16] = Pseudomonas aeruginosa, V1, Pseudomonas aeruginosa V-1
[17] = Yersinia enterocolitica, IID981, Yersinia enterocolitica IID 981
[18] = IID969, Shigella sonnei IID 969, read-out: Minimum inhibitory concentration
[19] = Alcaligenes faecalis, 0104002, Alcaligenes faecalis 0104002
[20] = Enterobacter cloacae, IID977, Enterobacter cloacae IID 977
[21] = Escherichia coli, NIHJJC2, Escherichia coli NIHJ JC-2
[22] = Serratia marcescens, IID618, Serratia marcescens IID 618
[23] = IID976, Citrobacter freundii IID 976
[24] = IID977, Enterobacter cloacae IID 977
[25] = NIHJJC2, Escherichia coli NIHJ JC-2
[26] = IFO3512, Klebsiella pneumoniae IFO 3512
[27] = IID618, Serratia marcescens IID 618
[28] = IID981, Yersinia enterocolitica IID 981

Row | Structure (SMILES) | MIC [1] [µg/mL] | MIC [3] [µg/mL] | MIC [4, 13] [µg/mL] | MIC [6, 14] [µg/mL] | MIC (P. morganii IID 602) [µg/mL] | MIC (Proteus vulgaris 3167; [15]) [µg/mL] | MIC [7, 16] [µg/mL] | MIC (S. epidermidis IID 866) [µg/mL] | MIC [8] [µg/mL] | MIC [11, 17] [µg/mL] | MIC (S. aureus Terajima) [µg/mL] | MIC (Shigella sonnei IID 969; [18]) [µg/mL] | MIC (P. aeruginosa IFO 12689) [µg/mL] | MIC [2, 19] [µg/mL] | MIC [12, 20] [µg/mL] | MIC [5, 21] [µg/mL] | MIC (P. mirabilis IID 994) [µg/mL] | MIC ([7]; V1, Pseudomonas aeruginosa V-1) [µg/mL] | MIC [10] [µg/mL] | MIC (E. coli ATCC 10536) [µg/mL] | also measured
1 | CCn1cc(C(=O)O)c(=O)c2cc(F)c(N3CCC(O)CC3)c(F)c21 [Example 9, 1-Ethyl-6,8-difluoro-1,4-dihydro-7-(4-hydroxy-1-piperidinyl)-4-oxoquinoline-3-carboxylic acid] | 1.56 (≈ 4.43 µM) | ≤ 0.05 | 0.78 (≈ 2.21 µM) | ≤ 0.05 | 0.78 (≈ 2.21 µM) | ≤ 0.05 | 6.25 (≈ 17.7 µM) | 0.39 (≈ 1.11 µM) | 1.56 (≈ 4.43 µM) | 0.78 (≈ 2.21 µM) | 0.2 (≈ 0.568 µM) | 0.2 (≈ 0.568 µM) | 12.5 (≈ 35.5 µM) | – | – | – | – | – | – | – | Minimum inhibitory concentration ([2]; Alcaligenes faecalis 0104002): 1.56 µg/mL (≈ 4.43 µM); Minimum inhibitory concentration ([5]; Escherichia coli NIHJ JC-2): 0.20 µg/mL (≈ 0.568 µM); Minimum inhibitory concentration ([9]; Serratia marcescens IID 618): 1.56 µg/mL (≈ 4.43 µM); Minimum inhibitory concentration [10]: 0.20 µg/mL (≈ 0.568 µM); Minimum inhibitory concentration (E. coli ATCC 10536): 0.20 µg/mL (≈ 0.568 µM)
2 | CCn1cc(C(=O)O)c(=O)c2cc(F)c(N3CCN(CCO)CC3)c(F)c21 [Example 8, 1-Ethyl-6,8-difluoro-1,4-dihydro-7-[4-(2-hydroxyethyl)-1-piperazinyl]-4-oxoquinoline-3-carboxylic acid] | 1.56 (≈ 4.09 µM) | 0.1 (≈ 0.262 µM) | 0.39 (≈ 1.02 µM) | ≤ 0.05 | 0.78 (≈ 2.05 µM) | 0.1 (≈ 0.262 µM) | – | 0.78 (≈ 2.05 µM) | 0.78 (≈ 2.05 µM) | 0.39 (≈ 1.02 µM) | 0.78 (≈ 2.05 µM) | 0.1 (≈ 0.262 µM) | 12.5 (≈ 32.8 µM) | 1.56 (≈ 4.09 µM) | 0.39 (≈ 1.02 µM) | ≤ 0.05 | 0.2 (≈ 0.524 µM) | 12.5 (≈ 32.8 µM) | 0.78 (≈ 2.05 µM) | 0.2 (≈ 0.524 µM) | MIC [9, 22]: 0.78 µg/mL (≈ 2.05 µM)
3 | Cl.O=C(O)c1cn(CCO)c2c(F)c(N3CCNCC3)c(F)cc2c1=O [Example 14, 6,8-Difluoro-1,4-dihydro-1-(2-hydroxyethyl)-4-oxo-7-(1-piperazinyl)-quinoline-3-carboxylic acid hydrochloride] | 25 | 3.13 | – | – | – | – | – | 12.5 | 0.39 | – | 25 | 0.2 | 12.5 | – | – | – | – | – | 12.5 | 0.39 | MIC ([2]; Alcaligenes faecalis 0104002): 100 µg/mL; MIC [4, 23]: 0.2 µg/mL; MIC [12, 24]: 0.39 µg/mL; MIC [5, 25]: 0.39 µg/mL; MIC [6, 26]: 0.39 µg/mL; MIC (Proteus vulgaris 3167; Proteus vulgaris 3167): 0.39 µg/mL; MIC [9, 27]: 6.25 µg/mL; MIC [11, 28]: 0.39 µg/mL
4 | CCCn1cc(C(=O)O)c(=O)c2cc(F)c(N3CCNCC3)c(F)c21.Cl [Example 2, 6,8-Difluoro-1,4-dihydro-4-oxo-7-(1-piperazinyl)-1-n-propylquinoline-3-carboxylic acid hydrochloride] | 1.56 | 0.2 | – | – | 0.39 | – | 12.5 | 3.13 | 0.2 | – | 3.13 | – | 6.25 | – | – | – | 0.1 | – | 1.56 | 0.2 | MIC ([2]; Alcaligenes faecalis 0104002): 1.56 µg/mL; MIC [4, 23]: 0.2 µg/mL; MIC [12, 24]: 0.78 µg/mL; MIC [5, 25]: ≤ 0.05 µg/mL; MIC [6, 26]: 0.1 µg/mL; MIC (Proteus vulgaris 3167; Proteus vulgaris 3167): ≤ 0.05 µg/mL; MIC [9, 27]: 0.39 µg/mL; MIC [11, 28]: 0.39 µg/mL; MIC (Shigella sonnei IID 969; IID969, read-out: Minimum inhibitory concentration): 0.1 µg/mL
5 | CN1CCN(c2c(F)cc3c(=O)c(C(=O)O)cn(CCF)c3c2F)CC1.Cl [Example 5, 6,8-Difluoro-1-(2-fluoroethyl)-1,4-dihydro-7-(4-methyl-1-piperazinyl)-4-oxoquinoline-3-carboxylic acid hydrochloride] | 0.39 | 0.1 | ≤ 0.05 | ≤ 0.05 | 0.1 | ≤ 0.05 | – | 0.78 | – | 0.1 | 0.78 | ≤ 0.05 | 3.13 | 0.78 | 0.1 | ≤ 0.05 | ≤ 0.05 | 3.13 | 0.78 | 0.1 | MIC [9, 22]: 0.1 µg/mL
